Results on two compounds are retold here after patent publication US10561736B1, “Apoptosis inhibitor formulations for prevention of hearing loss” (Spiral Therapeutics, Inc., priority 2019, dated 2020).

The subject of one series is HEI-OC1 cells. Nature of the series: release of mitochondrial Cytc in HEI-OC1 cells with CisPt (flow cytometry). The class given is cell-based. As to conditions: HEI-OC1 cells, CisPt alone vs pre-incubated with LPT99, flow cytometry. As to the method:
Flow cytometry was also used to characterize the effect of LPT99 in the release of mitochondrial Cytc in HEI-OC1 cells in vitro with CisPt prevention.
The effect of LPT99 on proliferation of non-apoptotic cells was studied. A549 cells were cultured in the presence of LPT99 for up to 6 days; the cell number was monitored by flow cytometry, and doubling time was calculated.
A general note: In flow cytometry, cells or beads pass a laser one at a time.

The test system of another series is rats. Nature of the series: GLP auditory safety study after single IT administration. The class given is in vivo, rat. As to the method:
Gross observations were recorded, and selected organs were weighed.

For the compound `N.N.[Cl][Pt][Cl]` [CisPt, cisplatin, reference compound], in the series on HEI-OC1 cells, the “release of mitochondrial Cytc” value is on record as 28%±6.6%.

As to gentamicin [reference compound], the weight-normalized heart weights entry in the series on rats (male rats, 400 mg/mL gentamicin, Day 14, vs saline controls) is “statistically significant (p≤0.05) increased weight-normalized heart weights”. The “otoscopic examination of the tympanic membranes (erythema, edema, wounds)” value in the series with rats (rat, single IT, Days 1, 7, 14, vs control) was “increases in otoscopic scores”. The “mortalities, clinical abnormalities, body weight, food intake, clinical pathologies” value with rats (rat, single bilateral IT 30 μL per ear, 14-day study) is “no LPT99- or gentamicin-related mortalities”.
